{
  "source": "paper PMC4742142",
  "about": "“Identification of novel, in vivo active Chk1 inhibitors utilizing structure guided drug design” (Oncotarget, 2015)",
  "key": {"Chk2 [1]": {"target": "T1, Chk2 (Homo sapiens, UniProt O96017)", "T1 sequence (O96017 whole entry)": "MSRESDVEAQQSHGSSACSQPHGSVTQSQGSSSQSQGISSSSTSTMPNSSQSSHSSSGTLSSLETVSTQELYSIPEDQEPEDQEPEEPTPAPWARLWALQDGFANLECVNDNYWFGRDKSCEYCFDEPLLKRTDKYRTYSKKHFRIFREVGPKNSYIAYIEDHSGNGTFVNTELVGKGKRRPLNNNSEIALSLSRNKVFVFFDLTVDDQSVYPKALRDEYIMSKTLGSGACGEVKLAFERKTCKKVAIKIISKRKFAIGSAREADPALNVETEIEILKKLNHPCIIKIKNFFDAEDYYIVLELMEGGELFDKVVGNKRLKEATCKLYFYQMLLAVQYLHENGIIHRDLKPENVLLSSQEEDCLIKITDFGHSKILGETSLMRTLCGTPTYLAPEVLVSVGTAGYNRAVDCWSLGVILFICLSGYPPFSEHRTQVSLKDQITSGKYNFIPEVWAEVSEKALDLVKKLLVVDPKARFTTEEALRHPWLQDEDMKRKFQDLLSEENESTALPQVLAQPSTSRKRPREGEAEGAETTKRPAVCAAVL", "test": "Etoposide induced Chk2 autophosphorylation (pS516) in HT29 cells, immunoblotting", "assay_type": "cell-based", "set-up": "endogenous in cells; host or cells: HT29", "conditions": "1 hour compound then 25 μM etoposide 5 hours", "experimental": "(§1) Figure 3 Effect of V158411 on etoposide, gemcitabine and camptothecin induced DNA damage checkpoint and cell cycle proteins A. HT29 cells were exposed to increasing concentrations of V158411 for 1 hour followed by 25 μM etoposide for a further 5 hours. Auto-phosphorylation of Chk1 and Chk2 was determined by immunoblotting. B. HT29 cells were treated with gemcitabine (25 nM) or camptothecin (50 nM) for 16 hours followed by increasing doses of V158411 for a further 24 hours. C. HT29 cells were treated with 500 nM V158411 for 1 hour, media removed and replaced with drug free. Cells were harvested at the indicated time points post the removal of V158411. D. HT29 cells were treated with 0 or 100 nM camptothecin for 16 hours followed by V158411 for 2 - 24 hours. After the indicated time, media was removed and replaced with drug free media. All cells were harvested 24 hours after the initial addition of V158411. Protein expression was characterized by immunoblotting as described in materials and methods.\n(§2) Anti-pHistone H3 (S10) was obtained from Millipore; pCdc2 (Y15), pCdc25C (S216), Chk1, pChk1 (S317), pChk2 (S516), Cyclin B1, pH2AX (S139), GAPDH and Actin from Cell Signaling Technologies and pChk1 (S296) from Abcam. […] Protein concentration was determined using BCA kit (Pierce). […]"}, "Chk1 [2]": {"target": "T2, Chk1 (Homo sapiens, UniProt O14757)", "T2 sequence (O14757 1-476)": "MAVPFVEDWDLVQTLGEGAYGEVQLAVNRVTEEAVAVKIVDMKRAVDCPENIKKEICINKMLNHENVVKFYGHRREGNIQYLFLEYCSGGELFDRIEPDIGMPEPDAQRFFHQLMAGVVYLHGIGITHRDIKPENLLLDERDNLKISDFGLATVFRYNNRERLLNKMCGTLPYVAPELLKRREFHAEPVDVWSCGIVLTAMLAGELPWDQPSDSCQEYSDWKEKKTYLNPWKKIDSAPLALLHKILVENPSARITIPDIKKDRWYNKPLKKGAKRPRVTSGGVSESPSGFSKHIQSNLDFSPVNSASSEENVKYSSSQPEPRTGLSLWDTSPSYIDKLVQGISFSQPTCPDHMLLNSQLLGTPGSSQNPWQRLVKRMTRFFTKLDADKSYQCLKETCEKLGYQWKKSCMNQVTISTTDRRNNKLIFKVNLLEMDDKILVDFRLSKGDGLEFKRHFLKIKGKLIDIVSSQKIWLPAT", "test": "Etoposide induced Chk1 autophosphorylation (pS296) in HT29 cells, immunoblotting", "assay_type": "cell-based", "experimental": "as §1\nAnti-pHistone H3 (S10) was obtained from Millipore; pCdc2 (Y15), pCdc25C (S216), Chk1, pChk1 (S317), pChk2 (S516), Cyclin B1, pH2AX (S139), GAPDH and Actin from Cell Signaling Technologies and pChk1 (S296) from Abcam. Treated and untreated cells were washed once with PBS and lysed in RIPA buffer containing protease and phosphatase inhibitor cocktail (Roche). Protein concentration was determined using BCA kit (Pierce). Equal amounts of lysate were separated by SDS-PAGE and western blot analysis conducted using the antibodies indicated above."}, "Chk1 [3]": {"target": "T2, Chk1", "test": "Western blotting of pChk1 (S296) in HT29 cells (gemcitabine or camptothecin; washout)", "assay_type": "cell-based", "conditions": "500 nM for 1 hour then drug free media", "experimental": "as §1, §2"}, "Chk2 [4]": {"target": "T1, Chk2", "test": "In vitro kinase assay, Chk2", "assay_type": "biochemical", "conditions": "full length Chk2", "experimental": "Kinase assays were performed as previously described."}, "[5]": {"test": "Plasma and tumor pharmacokinetics in HT29 tumor bearing mice", "assay_type": "in vivo", "conditions": "mouse, HT29 tumor bearing mice, 30 mg/kg IV", "experimental": "(§3) Dosing of animals and collection of samples was conducted by Quotient Bioresearch (Rushden) Ltd, UK. V158411 was administered by intravenous (IV) bolus injection to female Balb/C mice, male Sprague-Dawley rats or male beagle dogs. Plasma samples were prepared by protein precipitation with acetonitrile containing internal standard (IS; dextromethorphan, 0.5 μg/mL); the analysis plate was centrifuged at 3,000 rpm for 10 minutes at 4°C. […] The ratios of analyte against IS peak areas were calculated, and concentrations derived from calibration lines generated by Quanlynx (Waters Ltd.).\n(§4) Pharmacokinetic parameters were calculated using the software package WinNonLin (Pharsight Corp.). Data was analyzed using noncompartmental analysis and fitted using plasma concentration versus time curves."}, "[6]": {"test": "Pharmacokinetics of V158411 and irinotecan, single and combination administration", "assay_type": "in vivo", "conditions": "mouse; for half-life / CL/F: female, Balb/C, plasma; for CL/F: read-out: CL or CL/F", "experimental": "as §3, §4"}, "pH2AX (S139)": {"test_system": "pH2AX (S139)", "test": "pH2AX ELISA in HT29 cells with gemcitabine", "assay_type": "cell-based", "conditions": "Homo sapiens, HT-29, 50 nM gemcitabine, 24 hours, read-out: Gem pH2AX (S139) EC50", "experimental": "1 × 10^4 HT29 cells were seeded per well of a 96 well plate and treated with a combination of 50 nM gemcitabine plus increasing concentrations of V158411 for 24 hours. Following fixation with methanol, pH2AX was detected with a mouse monoclonal antibody (JBW301, Millipore) and a europium-labeled anti-mouse secondary antibody."}, "[7]": {"test": "Plasma pharmacokinetics, IV bolus", "assay_type": "in vivo", "conditions": "10 mg/kg IV; for Vd: read-out: Vss", "experimental": "as §3, §4"}, "[8]": {"conditions": "other: V158411 intravenous, irinotecan intraperitoneal"}, "[9]": {"conditions": "other: irinotecan intraperitoneal, V158411 intravenous"}},
  "note": "Where two headings read alike, the source gives them in different places.",
  "data": [
    {"smiles": "CN(C)CC(C)(C)COc1ccc2[nH]c(-c3cc(NC(=O)c4cnn(Cc5ccccc5)c4)c[nH]c3=O)cc2c1", "note": "[V158411]", "values": [
      {"measurement": "IC50", "setting": "Chk2 [1]", "result": 904, "unit": "nM"},
      {"measurement": "IC50 for Chk1 autophosphorylation and EC50 for H2AX phosphorylation lower than single agent GI50", "setting": "Chk1 [2]", "result": "around 10 fold"},
      {"measurement": "IC50", "setting": "Chk1 [2]; 1 hour compound then 25 μM etoposide 5 hours", "result": 48, "unit": "nM"},
      {"measurement": "cellular selectivity for Chk1 versus Chk2", "setting": "Chk1 [2]; etoposide", "result": 19, "unit": "fold"},
      {"measurement": "duration of Chk1 inhibition (pChk1 S296) after removal of compound from the culture media", "setting": "Chk1 [3]", "result": "at least 24 hours"},
      {"measurement": "IC50", "setting": "Chk2 [4]", "result": 4.5, "unit": "nM"},
      {"measurement": "clearance", "setting": "[5]; plasma", "result": 24, "unit": "mL/min/kg"},
      {"measurement": "half-life", "setting": "[5]; plasma, read-out: half-life (plasma) (converted)", "result": 4.1, "unit": "h"},
      {"measurement": "Vd", "setting": "[5]; plasma, read-out: volume of distribution", "result": 2.5, "unit": "L/kg"},
      {"measurement": "half-life", "setting": "[5]; read-out: elimination half-life in the tumor (converted)", "result": 22, "unit": "h"},
      {"measurement": "Kp", "setting": "[5]; tumor versus plasma, read-out: tissue/plasma AUC0-24h ratio", "result": 4.7},
      {"measurement": "half-life", "setting": "[6]; [8]", "result": 3.4, "unit": "h"},
      {"measurement": "CL/F", "setting": "[6]; [8]", "result": 17.7, "unit": "mL/min/kg"},
      {"measurement": "half-life", "setting": "[6]; [9]", "result": 3.3, "unit": "h"},
      {"measurement": "CL/F", "setting": "[6]; [9]", "result": 8.2, "unit": "mL/min/kg"},
      {"measurement": "AUClast fold change", "setting": "[6]; combination (C) versus single administration (I)", "result": 2.2, "unit": "fold"},
      {"measurement": "EC50", "setting": "pH2AX (S139)", "result": 51, "unit": "nM"},
      {"measurement": "AUC(0-t)", "setting": "[7]; female, Balb/C, mouse", "result": 7100, "unit": "ng·h/mL"},
      {"measurement": "clearance", "setting": "[7]; female, Balb/C, mouse", "result": 20, "unit": "mL/min/kg"},
      {"measurement": "half-life", "setting": "[7]; female, Balb/C, mouse", "result": 2.9, "unit": "h"},
      {"measurement": "Vd", "setting": "[7]; female, Balb/C, mouse", "result": 3.3, "unit": "L/kg"},
      {"measurement": "AUC(0-t)", "setting": "[7]; male, Sprague-Dawley, rat", "result": 6910, "unit": "ng·h/mL"},
      {"measurement": "clearance", "setting": "[7]; male, Sprague-Dawley, rat", "result": 23.2, "unit": "mL/min/kg"},
      {"measurement": "half-life", "setting": "[7]; male, Sprague-Dawley, rat", "result": 3.3, "unit": "h"},
      {"measurement": "Vd", "setting": "[7]; male, Sprague-Dawley, rat", "result": 2.4, "unit": "L/kg"},
      {"measurement": "AUC(0-t)", "setting": "[7]; male, beagle, dog", "result": 16000, "unit": "ng·h/mL"},
      {"measurement": "clearance", "setting": "[7]; male, beagle, dog", "result": 10.6, "unit": "mL/min/kg"},
      {"measurement": "half-life", "setting": "[7]; male, beagle, dog", "result": 3.2, "unit": "h"},
      {"measurement": "Vd", "setting": "[7]; male, beagle, dog", "result": 1.2, "unit": "L/kg"}
    ]}
  ]
}
